Read-outs that look alike come from different tables or passages of the source.
Experiments:
[1] = tested on: DNA adducts; design: method as in Xia et al. ([2013]); conditions: moderate tumour formation; ref Xia et al. ([2013]); cited from earlier work
[2] = design: method as in IARC [2019]; conditions: possibly carcinogenic in humans; ref IARC [2019]; cited from earlier work
[3] = design: method as in Estep et al. 1991; conditions: rat, iv 60 mg/kg bw, ref Estep et al. 1991, cited from earlier work
[4] = design: method as in Lester et al. ([2019]); conditions: ref Lester et al. ([2019]); cited from earlier work
[5] = Reported blood kinetics after iv [14C] monocrotaline (Estep et al. 1991); format: in vivo; conditions: rat, iv 60 mg/kg bw, from Estep et al. 1991
Procedure: The reported concentration nmol/g is assumed to be equal to nmol/ml or µM. The reported blood concentration is calculated as the sum of the plasma and RBC concentration.

[6] = Fraction unbound in rat serum by rapid equilibrium dialysis (RED); format: in vitro ADME; conditions: 37 °C, read-out: fub, in vivo (fraction unbound)
Procedure: The fub,in vivo was determined by rapid equilibrium dialysis (RED) (Waters et al. [2008]). […] The device was sealed with tape and incubated at 37 °C on a shaker at 250 rpm. After incubation for 5 h when the system reached equilibrium (van Liempd et al. [2011]), 50 µl of post-dialysis samples was collected from the serum and buffer chambers into separate eppendorf tubes. Subsequently, 50 µl of rat serum was added to the buffer samples and 50 µl of PBS was added to the serum samples. To precipitate the protein, 300 µl of ice-cold acetonitrile (90% v/v) was added to both tubes. After putting the mixtures on ice for 30 min, the mixtures were centrifuged at 15,000 g for 30 min at 4 °C, and the supernatants were diluted five times in 90% (v/v) acetonitrile and analyzed by LC–MS as described above. The measurements were performed in triplicate.

[7] = tested on: human liver cell line HepaRG; conditions: in vitro γH2AX induction potency, ref Louisse et al. ([2019]); cited from earlier work
[8] = tested on: primary rat hepatocytes; design: method as in Tu et al. ([2013]); conditions: 2 µM, pH 7.4; ref Tu et al. ([2013]); cited from earlier work
[9] = tested on: HepaRG cells; design: method as in Louisse et al. ([2019]); conditions: 24 h exposure; ref Louisse et al. ([2019]); cited from earlier work
[10] = Substrate depletion in incubations with pooled rat intestinal microsomes; format: in vitro ADME, rat (Sprague–Dawley)
Procedure: After 5 min of pre-incubation in a shaking water bath at 37 °C, the reactions were started by the addition of 1 mM NADPH. The reactions were carried out for 1 h and 2 h for liver and intestinal microsomes, respectively. For each incubation, a corresponding control incubated in the absence of NADPH was included by adding buffer instead of NADPH. To stop the metabolic conversion, 100 µl of ice-cold methanol was added and the sample was put on ice, then centrifuged at 5000 × g for 20 min at 4 °C using a microcentrifuge (CT15RE, VWR, Leuven, Belgium). Supernatants were diluted 200 times in 90% (v/v) acetonitrile and transferred to LC–MS vials. LC–MS analysis was performed using a Shimadzu Nexera XR LC-20AD SR UPLC system in tandem with a Shimadzu LCMS-8040 mass spectrometer (Shimadzu, Kyoto, Japan). From each incubation, 1 µl of supernatant was loaded onto a Luna Omega polar C18 100A LC column (1.6 µm 100 × 2.1 mm, Phenomenex) fitted with a FP polar precolumn (Phenomenex), using a flow rate of 0.3 ml/min. The temperature was set at 40 °C and 5 °C for column and sample, respectively. The mobile phase consisted of ultrapure water (solvent A) and acetonitrile (solvent B) both containing 0.1% (v/v) formic acid. The gradient began with 100% solvent A (0% B) for 1 min to wash away unwanted salts, followed by a linear gradient from 0 to 5% B till 8 min and a further increase to 100% B in 2 min, keeping the elution at 100% B for 0.5 min, then the column was set back to the starting conditions and equlibrated for 3.4 min before the next injection. […] For all incubations, three independent replicates were performed.
The ratio of Vmax and Km was calculated as the in vitro catalytic efficiency (kcat) expressed in […]. […] The rat liver weight of 8.5 g and small intestine weight of 3.5 g (see Table 1) (Brown et al. [1997]) were used to scaled the in vivo kcat values to values expressed in ml/min/tissue.

[11] = intestine, 20.6 mg microsomal protein/g small intestine, present study
[12] = small intestine, PBK model code

C[C@H]1C(=O)O[C@@H]2CCN3CC=C(COC(=O)[C@](C)(O)[C@]1(C)O)[C@H]23 [Monocrotaline]
ranking based on the formation of DNA adducts [1]: group II
IARC carcinogenicity category [2]: 2B
Reported concentration of monocrotaline equivalents, RBCs ([3]; 5 min): 144.00 µM
Reported concentration of monocrotaline equivalents, plasma ([3]; 5 min): 113.00 µM
Reported concentration of monocrotaline equivalents, RBCs ([3]; 15 min): 113.46 µM
Reported concentration of monocrotaline equivalents, plasma ([3]; 15 min): 81.88 µM
Reported concentration of monocrotaline equivalents, RBCs ([3]; 30 min): 100.06 µM
Reported concentration of monocrotaline equivalents, plasma ([3]; 30 min): 67.35 µM
Reported concentration of monocrotaline equivalents, RBCs ([3]; 60 min): 100.13 µM
Reported concentration of monocrotaline equivalents, plasma ([3]; 60 min): 49.84 µM
Reported concentration of monocrotaline equivalents, RBCs ([3]; 120 min): 104.89 µM
Reported concentration of monocrotaline equivalents, plasma ([3]; 120 min): 29.65 µM
Reported concentration of monocrotaline equivalents, RBCs ([3]; 180 min): 99.93 µM
Reported concentration of monocrotaline equivalents, plasma ([3]; 180 min): 21.82 µM
Reported concentration of monocrotaline equivalents, RBCs ([3]; 240 min): 99.60 µM
Reported concentration of monocrotaline equivalents, plasma ([3]; 240 min): 17.11 µM
Reported concentration of monocrotaline equivalents, RBCs ([3]; 300 min): 79.81 µM
Reported concentration of monocrotaline equivalents, plasma ([3]; 300 min): 13.07 µM
Reported concentration of monocrotaline equivalents, RBCs ([3]; 360 min): 85.50 µM
Reported concentration of monocrotaline equivalents, plasma ([3]; 360 min): 12.16 µM
Reported concentration of monocrotaline equivalents, RBCs ([3]; 420 min): 81.00 µM
Reported concentration of monocrotaline equivalents, plasma ([3]; 420 min): 11.00 µM
metabolic stability [4]: metabolically stable
Reported concentration of monocrotaline equivalents, blood (plasma + RBCs) ([5]; 5 min): 257.00 µM
Reported concentration of monocrotaline equivalents, blood (plasma + RBCs) ([5]; 15 min): 195.34 µM
Reported concentration of monocrotaline equivalents, blood (plasma + RBCs) ([5]; 30 min): 167.41 µM
Reported concentration of monocrotaline equivalents, blood (plasma + RBCs) ([5]; 60 min): 149.97 µM
Reported concentration of monocrotaline equivalents, blood (plasma + RBCs) ([5]; 120 min): 134.54 µM
Reported concentration of monocrotaline equivalents, blood (plasma + RBCs) ([5]; 180 min): 121.75 µM
Reported concentration of monocrotaline equivalents, blood (plasma + RBCs) ([5]; 240 min): 116.71 µM
Reported concentration of monocrotaline equivalents, blood (plasma + RBCs) ([5]; 300 min): 92.88 µM
Reported concentration of monocrotaline equivalents, blood (plasma + RBCs) ([5]; 360 min): 97.66 µM
Reported concentration of monocrotaline equivalents, blood (plasma + RBCs) ([5]; 420 min): 92.00 µM
fraction unbound at 5 h, 150 µM [6]: 0.53 ± 0.12
potency group [7]: group 3
overall rate for uptake into primary rat hepatocytes [8]: 14.5 pmol/mg protein/min
cytotoxicity in HepaRG cells [9]: did not exhibit cytotoxicity
Km ([10]; Sprague-Dawley, rat, pooled rat intestinal microsomes, pH 7.4, intestine, present study): 13.4 µM
Scaled Vmax [10, 11]: 0.4 nmol/min/g tissue
Scaled kcat [10, 11]: 0.03 ml/min/g tissue
Vmax ([10]; intestine, present study): 0.02 nmol/min/mg microsomal protein
Scaled kcat ([10]; small intestine weight 3.5 g, present study): 0.1 ml/min/ tissue
KmSiM2, affinity constant [10, 12]: 13.39 µmol/L
VmaxSiM2c, unscaled maximum rate of metabolism [10, 12]: 0.02 nmol/min-1/mg protein

— PMC7415757, “Monocrotaline-induced liver toxicity in rat predicted by a combined in vitro physiologically based kinetic modeling approach” (Archives of Toxicology, 2020)
